Source: patent US12157745B2, “Heterocyclic systems and pharmaceutical compositions thereof” (University of Sharjah, priority 2018, dated 2024)

Tests used:
MCF7 cells = test: Cell synchronization study, antiproliferative effect on synchronized cells; assay type: cell-based
Method: Cell synchronization and tubulin study: The antiproliferative effect of the compound it was tested on MCF7 cells which were synchronized at specific phases of the cell cycle. […] One way of inhibiting cell proliferation in G2/M phase is by altering equilibrium between polymerization and depolymerization of microtubule proteins which is required for active mitotic cell division.

SKBr3 cells = test: Apoptosis study (western blot, caspase-3 activation); assay type: cell-based; conditions: multi-drug resistant breast cancer cells SKBr3
Method: Apoptosis studies: The molecular effect of compound it was evaluated by investigating its apoptotic (FIG. 5) and cell cycle arresting potentials (FIGS. 6A and 6B). Compound it arrests the cells at G0/G1 phase in MCF-7 cells (>15%) with respect to control cells after 16, 24, 48, and 72 hours of treatment.
(§1) The MCF-7, SKBR3 and HCT116 total cell lysate were prepared after 24 hours of treatment with compound it at IC50 and DIC50 doses by using 1× laemmli buffer. Total protein concentration was then estimated for each sample and 15-30 μg of protein lysate were loaded equally on 12% SDS-PAGE gel in order to detect various proteins expression levels. In short, the membrane was incubated with different primary antibodies (as mentioned in above section) (1:1000) overnight after blocking with 5% non-fat milk solution for 1 hour. The membrane was then re-probed with respective mouse/rabbit secondary antibodies (1:2000) for 1 h, and later developed by enhanced chemiluminescence (ECL) method by using a Chemidoc MP (BioRad, Germany).
The apoptotic level was measured using a kit method as per supplier's protocol. […] 2×10^6 cells were counted and re-suspended in 1 mL of binding buffer (1×). […] 400 μL of IX binding buffer was finally added to the cells and analyzed immediately by using by a flow cytometer (BD, Accuri C6).

ATR = test: DNA damage study, ATR phosphorylation (western blot); assay type: cell-based; conditions: also its downstream target p53
Method: However, recruitment of phosphatidylinositol-3-kinase (PI3K) family members to the site of DNA damage is the first step of DNA damage response mechanisms and the phosphorylation of ataxia telangiectasia-mutated (ATM) or ATM-Rad3-related (ATR) kinases often follows. […] Overall, compound it was able to induce DNA damage in an ATR-Chk2 dependent pathway in aggressive breast cancer phenotypes.
as §1

[1] = target: T1, inositol-3-phosphate synthase (Homo sapiens, UniProt Q9NPH2); test: DARTS proteomic assay; assay type: binding
T1 construct: HEK293T cells were lysed using M-PER; endogenous in cells; host or cells: HEK293T lysate
T1 sequence (Q9NPH2 whole entry): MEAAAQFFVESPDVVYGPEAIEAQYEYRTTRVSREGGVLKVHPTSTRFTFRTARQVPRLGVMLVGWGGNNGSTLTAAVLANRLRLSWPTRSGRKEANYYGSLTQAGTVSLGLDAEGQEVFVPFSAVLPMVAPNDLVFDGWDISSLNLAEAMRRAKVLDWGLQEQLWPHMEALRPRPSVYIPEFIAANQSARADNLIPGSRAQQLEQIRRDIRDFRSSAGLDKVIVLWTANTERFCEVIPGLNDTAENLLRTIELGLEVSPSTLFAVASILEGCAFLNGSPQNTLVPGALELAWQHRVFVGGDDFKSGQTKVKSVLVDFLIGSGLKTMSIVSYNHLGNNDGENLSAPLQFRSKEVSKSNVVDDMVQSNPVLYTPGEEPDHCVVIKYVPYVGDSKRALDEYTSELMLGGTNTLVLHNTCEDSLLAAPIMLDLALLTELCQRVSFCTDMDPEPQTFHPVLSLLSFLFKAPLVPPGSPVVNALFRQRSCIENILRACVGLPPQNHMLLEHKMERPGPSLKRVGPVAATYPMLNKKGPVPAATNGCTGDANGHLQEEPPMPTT
Excerpt: (§2) The unique properties of compound it prompted an in-depth analysis to explore its potential novel targets.
(§3) Similarly, deregulated inositol metabolism has been observed in a number of diseases, including cancer, where inositol modulates different critical pathways in disease progression. Moreover, it is expressed consistently in bipolar disorders and Alzheimer's diseases. […] Likewise, the role of glutathione reductase is well known in cancer progression and chemoresistance. The equilibrium between the glutathione disulphide ratio is critical not only in cancer progression but also in increased oxidative stress which can lead to other disorders.
(§4) A DARTS assay was used to assess the binding of compound 1t. HEK293T cells were lysed using M-PER (Thermo Scientific, Inc.) supplemented with protease and phosphatase inhibitors (Lysis buffer). 4.7 mg/mL of protein and TNC buffer (10 mM Tris, 140 mMNaCl, 5 mM CaCl2)) was added, compound it was diluted in DMSO to 3 different concentrations (0.01 μM, 0.1 μM, 1 μM) and incubated for one hour at room temperature. Trypsin (Promega) was added and incubated for 3 hours at 37° C. Thereafter, M-PER lysis buffer was added and the samples were concentrated with Microcon 10K centrifugal filters. The proteins were identified by gel electrophoresis liquid chromatography mass spectroscopy (GelLCMS).

[2] = target: T2, transferrin receptor proteins (Homo sapiens, UniProt P02786); test: DARTS proteomic assay; assay type: binding
T2 construct: HEK293T cells were lysed using M-PER; endogenous in cells; host or cells: HEK293T lysate
T2 sequence (P02786 whole entry): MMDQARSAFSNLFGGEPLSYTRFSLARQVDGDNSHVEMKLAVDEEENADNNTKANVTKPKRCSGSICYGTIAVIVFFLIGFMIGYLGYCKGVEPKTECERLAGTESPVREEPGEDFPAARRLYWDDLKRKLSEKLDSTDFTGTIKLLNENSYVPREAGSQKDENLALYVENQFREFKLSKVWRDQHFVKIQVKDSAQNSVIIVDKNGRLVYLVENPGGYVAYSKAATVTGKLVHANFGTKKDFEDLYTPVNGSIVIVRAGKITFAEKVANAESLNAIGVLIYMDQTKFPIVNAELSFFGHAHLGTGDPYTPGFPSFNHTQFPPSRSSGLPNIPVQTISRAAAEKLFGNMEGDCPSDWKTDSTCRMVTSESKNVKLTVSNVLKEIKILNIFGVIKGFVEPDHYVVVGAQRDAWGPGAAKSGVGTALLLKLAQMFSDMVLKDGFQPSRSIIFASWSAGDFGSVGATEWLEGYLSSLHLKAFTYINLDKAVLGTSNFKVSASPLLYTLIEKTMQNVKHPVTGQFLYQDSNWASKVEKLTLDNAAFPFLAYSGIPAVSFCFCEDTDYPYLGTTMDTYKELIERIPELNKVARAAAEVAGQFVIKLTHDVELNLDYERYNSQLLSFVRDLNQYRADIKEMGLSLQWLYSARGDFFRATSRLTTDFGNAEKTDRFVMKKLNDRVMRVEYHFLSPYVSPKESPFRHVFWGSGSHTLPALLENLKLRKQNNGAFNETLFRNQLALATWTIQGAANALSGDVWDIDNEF
Excerpt: as §2, §3, §4

[3] = target: T3, dihydrolipoamide dehydrogenase (Homo sapiens, UniProt P09622); test: DARTS proteomic assay; assay type: binding; conditions: FIG. 15
T3 construct: HEK293T cells were lysed using M-PER; endogenous in cells; host or cells: HEK293T lysate
T3 sequence (P09622 36-509): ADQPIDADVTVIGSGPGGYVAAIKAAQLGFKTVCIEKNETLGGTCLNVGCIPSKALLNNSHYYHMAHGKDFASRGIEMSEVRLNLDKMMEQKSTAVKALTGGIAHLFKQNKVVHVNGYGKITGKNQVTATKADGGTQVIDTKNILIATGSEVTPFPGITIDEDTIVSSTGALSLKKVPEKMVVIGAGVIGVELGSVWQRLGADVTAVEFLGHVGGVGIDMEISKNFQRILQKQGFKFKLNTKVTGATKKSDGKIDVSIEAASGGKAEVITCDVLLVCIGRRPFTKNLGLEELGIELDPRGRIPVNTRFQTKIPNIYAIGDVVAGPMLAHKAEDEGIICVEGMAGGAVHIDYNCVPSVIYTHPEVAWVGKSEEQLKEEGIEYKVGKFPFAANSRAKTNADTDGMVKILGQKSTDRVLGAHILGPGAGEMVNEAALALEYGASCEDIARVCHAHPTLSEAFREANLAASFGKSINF
Excerpt: as §2
Dihydrolipoamide dehydrogenase (DLD) is a mitochondrial enzyme involved in metabolic process that is encoded by the DLD gene. Not many studies have been done to identify the direct involvement of this enzyme in cancers. However, a deregulated level of DLD may modulate mitochondrial-mediated diseases and may impair normal metabolic processes. […] The presently disclosed data is encouraging and indicates compound it may potentially be used to target multiple key enzymes that are involved in tumor development and progression.
as §4

Affinity to bind inositol-3-phosphate synthase [1]: dose-dependent affinity
Affinity to transferrin receptors [2]: higher affinity
Regulation of dihydrolipoamide dehydrogenase [3]: regulates this enzyme
SMILES: CC1(C)[C@H]2COc3ccc4ccccc4c3[C@H]2N=C2SC(c3ccccc3)=C(c3ccccc3)N21 [Compound 1t]
Sensitivity of G2/M-arrested cells versus asynchronous cells (MCF7 cells; MCF7 cells synchronized at specific phases of the cell cycle): more sensitive
Cells arrested at G2/M phase (MCF7 cells; synchronized MCF7 cells): 18.5%
Apoptotic induction (SKBr3 cells): mitochondrial-mediated apoptotic induction with caspase-3 activation
ATR phosphorylation (ATR): phosphorylates ATR
